Reference: patent US5470860A, “1,4-dihydropyridines for use in the treatment of dermatoses” (Byk Gulden Lomberg Chemische Fabrik GmbH, priority 1991, dated 1995)
pIC50: −log10 of the molar value.

Assays:
[1] = tested on: human transformed keratinocytes (HaCat); assay: cells; details: 72 h
Method: In a second cell reproduction test, human transformed keratinocytes (HaCat) are employed which are cultured in DMEM culture medium with an addition of 10% calf serum. Cells which have grown to confluence beforehand are isolated with trypsin and distributed in 6-well plates in a density of 40×10^3.
The test substance is added 24 h after distribution and after incubation for a further 72 h the cell count is determined using a Coulter counter. Controls are incubated without further additions or with the addition of the solubilizer polyethylene glycol 400 (0.05%).
Evaluation was made in each case for 6 wells/concentration.

[2] = tested on: human keratinocytes; assay: cells; details: Keratinocyte, 264 h, read-out: average inhibitory concentration (IC50)
Method: To determine the action, firstly human keratinocytes from the preputial skin of neonates after the 1st passage are distributed in MCDB153 medium in 96-well microtiter plates (2×10^3 cells/well) and the compound given below is added in concentrations of from 10^-10 to 10^-5 M, blank controls containing only the solubilizer DMSO (1%). The period of incubation is 11 days, and after another 2 days in each case there is a change of medium followed by renewed addition of substance.
To determine the rate of cell reproduction, incubation is carried out for 1 h with 4-methylumbelliferyl heptanoate (MUH) according to the method described by R. Stadler et al., Journal of Investigative Dermatology 93, 532-534, 1989, after which the fluorescence intensity is measured using a Titertek Fluoroskan.
4 experiments were carried out, in each case with 4 wells/concentration.

[3] = read-out: % inhibition of growth

With COC(=O)C1=C(C)NC(C)=C(C(=O)OCCCN2CCC(c3ccccc3)(c3ccccc3)CC2)C1c1cccc([N+](=O)[O-])c1 (single isomer, unassigned) [Compound 1, 3-methyl 5-[3-(4,4-diphenyl-1-piperidyl)propyl] (-)-1,4-dihydro-2,6-dimethyl-4-(3-nitrophenyl)pyridine-3,5-dicarboxylate] the inhibition at 1 µM [1, 3] was 60%, the inhibition at 10 µM [1, 3] was 96% and the pIC50 ([1]; read-out: inhibitory concentration (IC50)) was 6.28. It also gave a pIC50 [2] of 7.06.
